Measured values taken from US11993599B2, “Therapeutic compounds” (Genentech, Inc., priority 2021, dated 2024).

How the values were obtained:
BRG1 = molecular target: T1, BRG1 (Homo sapiens, UniProt P51532); assay: Immunofluorescence assay for BRG1 degradation in SW1573 cells; assay type: cell-based; conditions: 20 hours incubation; for DC50: immunofluorescence mean nuclear signal, read-out: BRG1 IF Degradation IC50; for Dmax: SW1573, 20 h, read-out: BRG1 IF Degradation Sinf (%); for Dmax / BRG1 IF Degradation Sinf (%): normalized to a known degrader control
T1 construct: either BRM primary antibody (Cell signaling Cat #11966) or BRG primary antibody (Abcam, ab 110641); endogenous in cells; host or cells: SW1573
T1 sequence (P51532 whole entry): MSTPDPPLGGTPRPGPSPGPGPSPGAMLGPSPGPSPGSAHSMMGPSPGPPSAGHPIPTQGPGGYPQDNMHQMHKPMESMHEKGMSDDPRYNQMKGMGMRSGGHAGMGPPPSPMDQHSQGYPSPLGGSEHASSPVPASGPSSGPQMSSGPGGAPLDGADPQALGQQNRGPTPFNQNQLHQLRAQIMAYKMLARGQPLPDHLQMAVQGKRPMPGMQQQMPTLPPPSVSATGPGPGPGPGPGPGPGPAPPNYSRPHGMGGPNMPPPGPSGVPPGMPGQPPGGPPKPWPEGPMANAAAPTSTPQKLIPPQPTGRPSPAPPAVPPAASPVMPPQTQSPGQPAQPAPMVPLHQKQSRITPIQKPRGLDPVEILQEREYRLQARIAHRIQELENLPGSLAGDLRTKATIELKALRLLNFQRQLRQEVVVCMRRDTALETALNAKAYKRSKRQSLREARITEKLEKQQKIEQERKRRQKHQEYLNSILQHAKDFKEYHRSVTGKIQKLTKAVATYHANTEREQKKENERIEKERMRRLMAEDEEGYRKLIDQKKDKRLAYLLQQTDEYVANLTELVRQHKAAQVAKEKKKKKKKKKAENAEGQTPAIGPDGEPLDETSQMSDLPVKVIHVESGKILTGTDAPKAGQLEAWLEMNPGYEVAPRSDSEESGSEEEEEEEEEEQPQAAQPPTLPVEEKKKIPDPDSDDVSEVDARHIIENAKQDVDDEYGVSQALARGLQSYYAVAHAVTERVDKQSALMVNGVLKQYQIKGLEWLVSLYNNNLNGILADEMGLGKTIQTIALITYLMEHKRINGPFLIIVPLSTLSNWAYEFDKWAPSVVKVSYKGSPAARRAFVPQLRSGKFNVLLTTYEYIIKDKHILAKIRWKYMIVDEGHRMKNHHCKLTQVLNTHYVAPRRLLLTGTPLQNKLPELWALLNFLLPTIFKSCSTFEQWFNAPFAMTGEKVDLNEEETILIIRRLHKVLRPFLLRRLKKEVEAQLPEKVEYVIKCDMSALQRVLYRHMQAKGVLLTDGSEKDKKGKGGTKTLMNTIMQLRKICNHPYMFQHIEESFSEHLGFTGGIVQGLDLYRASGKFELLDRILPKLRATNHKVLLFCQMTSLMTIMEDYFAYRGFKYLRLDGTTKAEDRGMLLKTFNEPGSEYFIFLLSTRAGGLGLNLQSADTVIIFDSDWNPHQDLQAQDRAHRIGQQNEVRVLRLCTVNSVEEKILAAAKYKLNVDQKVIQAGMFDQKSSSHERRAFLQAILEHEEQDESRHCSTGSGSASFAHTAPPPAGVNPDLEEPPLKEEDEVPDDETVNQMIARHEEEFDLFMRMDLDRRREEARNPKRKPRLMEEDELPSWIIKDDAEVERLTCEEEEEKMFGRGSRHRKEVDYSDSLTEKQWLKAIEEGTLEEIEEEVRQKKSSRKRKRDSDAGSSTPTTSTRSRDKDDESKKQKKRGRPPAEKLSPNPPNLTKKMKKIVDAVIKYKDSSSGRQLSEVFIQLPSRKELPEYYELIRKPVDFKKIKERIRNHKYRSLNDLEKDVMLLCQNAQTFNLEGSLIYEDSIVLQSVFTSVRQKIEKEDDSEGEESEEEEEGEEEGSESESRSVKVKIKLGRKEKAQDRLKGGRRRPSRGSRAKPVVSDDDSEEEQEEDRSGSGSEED
In short: (§1)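 Read-out: mean per-cell nuclear BRM or BRG1 immunofluorescence by automated imaging. SW1573, 20 h compound, 4% formaldehyde fix, Triton permeabilization, overnight 4 °C primary antibody, fluorescent secondary plus Hoechst. Normalized to reference degrader; floating-max curve fit gives Dmax.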

BRM = BRM (Homo sapiens, UniProt P51531); assay: Immunofluorescence assay for BRM degradation in SW1573 cells; assay type: cell-based; design: treated overnight at 4° C. with either BRM primary antibody (Cell signaling Cat #11966) or BRG primary antibody; endogenous in cells; host or cells: SW1573; conditions: 20 hours incubation; for DC50: immunofluorescence mean nuclear signal, read-out: BRM IF Degradation IC50; for BRM IF Degradation Sinf (%): normalized to a known degrader control
Chain of BRM (P51531 whole entry): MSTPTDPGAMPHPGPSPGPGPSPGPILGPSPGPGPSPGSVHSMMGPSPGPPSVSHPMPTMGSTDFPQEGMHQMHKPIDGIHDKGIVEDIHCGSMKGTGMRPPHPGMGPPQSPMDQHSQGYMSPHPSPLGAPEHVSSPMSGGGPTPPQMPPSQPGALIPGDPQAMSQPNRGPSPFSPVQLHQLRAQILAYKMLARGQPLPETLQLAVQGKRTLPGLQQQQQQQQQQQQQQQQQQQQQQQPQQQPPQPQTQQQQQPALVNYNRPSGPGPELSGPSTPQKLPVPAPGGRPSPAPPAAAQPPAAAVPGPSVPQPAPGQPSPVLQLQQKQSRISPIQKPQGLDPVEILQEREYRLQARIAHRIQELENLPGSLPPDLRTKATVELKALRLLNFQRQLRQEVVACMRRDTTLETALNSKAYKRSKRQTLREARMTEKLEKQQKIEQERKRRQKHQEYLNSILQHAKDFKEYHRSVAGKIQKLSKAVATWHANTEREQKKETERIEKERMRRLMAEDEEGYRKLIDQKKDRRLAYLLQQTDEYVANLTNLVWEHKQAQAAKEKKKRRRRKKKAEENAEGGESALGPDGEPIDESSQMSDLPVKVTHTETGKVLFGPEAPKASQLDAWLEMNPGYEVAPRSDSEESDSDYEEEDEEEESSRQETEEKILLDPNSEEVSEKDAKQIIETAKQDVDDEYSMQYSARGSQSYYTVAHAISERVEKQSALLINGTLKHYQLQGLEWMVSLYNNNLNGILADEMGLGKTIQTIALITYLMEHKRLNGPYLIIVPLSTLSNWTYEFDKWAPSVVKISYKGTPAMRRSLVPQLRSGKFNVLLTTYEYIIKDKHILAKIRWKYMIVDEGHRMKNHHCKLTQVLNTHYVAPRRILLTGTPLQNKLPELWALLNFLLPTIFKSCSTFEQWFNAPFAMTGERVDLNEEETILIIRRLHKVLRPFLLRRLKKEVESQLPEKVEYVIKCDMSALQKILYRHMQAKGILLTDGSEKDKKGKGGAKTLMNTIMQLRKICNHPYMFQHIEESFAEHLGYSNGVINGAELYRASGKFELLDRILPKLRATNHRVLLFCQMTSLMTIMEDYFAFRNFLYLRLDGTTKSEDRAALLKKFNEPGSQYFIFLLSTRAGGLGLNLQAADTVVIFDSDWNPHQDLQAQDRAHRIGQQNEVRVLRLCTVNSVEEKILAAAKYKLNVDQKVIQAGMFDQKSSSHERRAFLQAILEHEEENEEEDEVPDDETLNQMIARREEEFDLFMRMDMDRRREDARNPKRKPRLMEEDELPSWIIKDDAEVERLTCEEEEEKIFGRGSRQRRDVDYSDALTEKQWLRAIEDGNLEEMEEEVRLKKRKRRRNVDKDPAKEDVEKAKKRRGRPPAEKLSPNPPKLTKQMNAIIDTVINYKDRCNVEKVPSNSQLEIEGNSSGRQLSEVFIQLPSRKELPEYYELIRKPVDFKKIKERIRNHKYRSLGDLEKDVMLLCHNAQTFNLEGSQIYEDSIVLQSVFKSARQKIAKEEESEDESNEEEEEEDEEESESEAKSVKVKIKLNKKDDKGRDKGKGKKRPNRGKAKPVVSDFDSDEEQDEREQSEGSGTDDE
In short: as §1

Structure (SMILES) | DC50 (BRG1) | Dmax (BRG1) | DC50 (BRM) | BRM IF Degradation Sinf (%) (BRM) | BRG1 IF Degradation Sinf (%) (BRG1)
Nc1nnc(-c2ccccc2O)cc1N1CC2CCC(C1)N2c1ccnc(C#CCN2CC(O)(C3CC3)C2)c1 [Compound 154, 1-[3-[4-[3-[3-amino-6-(2-hydroxyphenyl)pyridazin-4-yl]-3,8-diazabicyclo[3.2.1]octan-8-yl]-2-pyridyl]prop-2-ynyl]-3-cyclopropyl-azetidin-3-ol] | < 0.01 µM | 30 to 70% | < 0.01 µM | F (F indicates −71%-−120%) | 
Nc1nnc(-c2ccccc2O)cc1N1CC2CCC(C1)N2c1ccnc(C#CCN2CC3(CCCC3)C2)c1 [Compound 155, 2-[6-amino-5-[8-[2-[3-(2-azaspiro[3.4]octan-2-yl)prop-1-ynyl]-4-pyridyl]-3,8-diazabicyclo[3.2.1]octan-3-yl]pyridazin-3-yl]phenol] | < 0.01 µM | 30 to 70% | < 0.01 µM | E (E indicates −30%-−70%) | 
CN1CC2(CCN(CC#Cc3cc(N4C5CCC4CN(c4cc(-c6ccccc6O)nnc4N)C5)ccn3)C2)C1 [Compound 156, 2-[6-amino-5-[8-[2-[3-(2-methyl-2,6-diazaspiro[3.4]octan-6-yl)prop-1-ynyl]-4-pyridyl]-3,8-diazabicyclo[3.2.1]octan-3-yl]pyridazin-3-yl]phenol] | > 0.1 µM | 30 to 70% | > 0.1 µM | E (E indicates −30%-−70%) | 
Nc1nnc(-c2ccccc2O)cc1N1CC2CCC(C1)N2c1ccnc(C#CCN2CC(C3CCOC3)C2)c1 (centres unmarked) [Compound 157, 2-[6-amino-5-[8-[2-[3-(3-tetrahydrofuran-3-ylazetidin-1-yl)prop-1-ynyl]-4-pyridyl]-3,8-diazabicyclo[3.2.1]octan-3-yl]pyridazin-3-yl]phenol] | 0.01 to 0.1 µM | 30 to 70% | 0.01 to 0.1 µM | E (E indicates −30%-−70%) | 
Nc1nnc(-c2ccccc2O)cc1N1CC2CCC(C1)N2c1ccnc(C#CCN2CC(CC(F)F)C2)c1 [Compound 158, 2-[6-amino-5-[8-[2-[3-[3-(2,2-difluoroethyl)azetidin-1-yl]prop-1-ynyl]-4-pyridyl]-3,8-diazabicyclo[3.2.1]octan-3-yl]pyridazin-3-yl]phenol] | < 0.01 µM | 30 to 70% | < 0.01 µM | F (F indicates −71%-−120%) | 
Nc1nnc(-c2ccccc2O)cc1N1CC2CCC(C1)N2c1ccnc(C#CCN2CCC23CCOCC3)c1 [Compound 159, 2-[6-amino-5-[8-[2-[3-(7-oxa-1-azaspiro[3.5]nonan-1-yl)prop-1-ynyl]-4-pyridyl]-3,8-diazabicyclo[3.2.1]octan-3-yl]pyridazin-3-yl]phenol] | < 0.01 µM | 30 to 70% | < 0.01 µM | E (E indicates −30%-−70%) | 
Nc1nnc(-c2ccccc2O)cc1N1CC2CCC(C1)N2c1ccnc(C#CCN2CC3(COCCO3)C2)c1 [Compound 160, 2-[6-amino-5-[8-[2-[3-(5,8-dioxa-2-azaspiro[3.5]nonan-2-yl)prop-1-ynyl]-4-pyridyl]-3,8-diazabicyclo[3.2.1]octan-3-yl]pyridazin-3-yl]phenol] | 0.01 to 0.1 µM | 0 to 30% | 0.01 to 0.1 µM | E (E indicates −30%-−70%) | 
Nc1nnc(-c2ccccc2O)cc1N1CC2CCC(C1)N2c1ccnc(C#CCN2C[C@H]3OCC[C@H]32)c1 [Compound 161, 2-[6-amino-5-[8-[2-[3-[(1R,5R)-2-oxa-6-azabicyclo[3.2.0]heptan-6-yl]prop-1-ynyl]-4-pyridyl]-3,8-diazabicyclo[3.2.1]octan-3-yl]pyridazin-3-yl]phenol] | 0.01 to 0.1 µM | 30 to 70% | < 0.01 µM | E (E indicates −30%-−70%) | 
Nc1nnc(-c2ccccc2O)cc1N1CC2CCC(C1)N2c1ccnc(C#CCN2CC3CCCC32)c1 (centres unmarked) [Compound 162, 2-(5-(8-(2-(3-(6-azabicyclo[3.2.0]heptan-6-yl)prop-1-yn-1-yl)pyridin-4-yl)-3,8-diazabicyclo[3.2.1]octan-3-yl)-6-aminopyridazin-3-yl)phenol] | < 0.01 µM | 30 to 70% | < 0.01 µM | F (F indicates −71%-−120%) | 
CNC(=O)[C@@H]1CCCN1CC#Cc1cc(N2C3CCC2CN(c2cc(-c4ccccc4O)nnc2N)C3)ccn1 [Compound 163, (2S)-1-[3-[4-[3-[3-amino-6-(2-hydroxyphenyl)pyridazin-4-yl]-3,8-diazabicyclo[3.2.1]octan-8-yl]-2-pyridyl]prop-2-ynyl]-N-methyl-pyrrolidine-2-carboxamide] | > 0.1 µM | 30 to 70% | 0.01 to 0.1 µM | E (E indicates −30%-−70%) | 
CN1C[C@@H]2C[C@H]1CN2CC#Cc1cc(N2C3CCC2CN(c2cc(-c4ccccc4O)nnc2N)C3)ccn1 [Compound 164, 2-[6-amino-5-[8-[2-[3-[(1S,4S)-5-methyl-2,5-diazabicyclo[2.2.1]heptan-2-yl]prop-1-ynyl]-4-pyridyl]-3,8-diazabicyclo[3.2.1]octan-3-yl]pyridazin-3-yl]phenol] | > 0.1 µM | 0 to 30% | 0.01 to 0.1 µM | E (E indicates −30%-−70%) | 
Nc1nnc(-c2ccccc2O)cc1N1CC2CCC(C1)N2c1ccnc(C#CCN2CCC[C@]23CCNC3)c1 [Compound 165, 2-[6-amino-5-[8-[2-[3-[(5R)-1,7-diazaspiro[4.4]nonan-1-yl]prop-1-ynyl]-4-pyridyl]-3,8-diazabicyclo[3.2.1]octan-3-yl]pyridazin-3-yl]phenol] | > 0.1 µM |  | > 0.1 µM | E (E indicates −30%-−70%) | 
Nc1nnc(-c2ccccc2O)cc1N1CC2CCC(C1)N2c1ccnc(C#CCN2CCCCC2)c1 [Compound 166, 2-(6-amino-5-(8-(2-(3-(piperidin-1-yl)prop-1-yn-1-yl)pyridin-4-yl)-3,8-diazabicyclo[3.2.1]octan-3-yl)pyridazin-3-yl)phenol] | > 0.1 µM |  | < 0.01 µM | E (E indicates −30%-−70%) | 
Nc1nnc(-c2ccccc2O)cc1N1CC2CCC(C1)N2c1ccnc(C#CCN2CCC23CCOC3)c1 (centres unmarked) [Compound 167, 2-[6-amino-5-[8-[2-[3-(7-oxa-1-azaspiro[3.4]octan-1-yl)prop-1-ynyl]-4-pyridyl]-3,8-diazabicyclo[3.2.1]octan-3-yl]pyridazin-3-yl]phenol] | < 0.01 µM |  | < 0.01 µM | F (F indicates −71%-−120%) | F (F indicates −71%-−120%)
Nc1nnc(-c2ccccc2O)cc1N1CC2CCC(C1)N2c1ccnc(C#CCN2CC(O)C2)c1 [Compound 168, 1-[3-[4-[3-[3-amino-6-(2-hydroxyphenyl)pyridazin-4-yl]-3,8-diazabicyclo[3.2.1]octan-8-yl]-2-pyridyl]prop-2-ynyl]azetidin-3-ol] | 0.01 to 0.1 µM |  | 0.01 to 0.1 µM | F (F indicates −71%-−120%) | E (E indicates −30%-−70%)
COC1(C)CN(CC#Cc2cc(N3C4CCC3CN(c3cc(-c5ccccc5O)nnc3N)C4)ccn2)C1 [Compound 169, 2-[6-amino-5-[8-[2-[3-(3-methoxy-3-methyl-azetidin-1-yl)prop-1-ynyl]-4-pyridyl]-3,8-diazabicyclo[3.2.1]octan-3-yl]pyridazin-3-yl]phenol] | 0.01 to 0.1 µM | 30 to 70% | < 0.01 µM | E (E indicates −30%-−70%) | 
CC1(CO)CN(CC#Cc2cc(N3C4CCC3CN(c3cc(-c5ccccc5O)nnc3N)C4)ccn2)C1 [Compound 170, 2-[6-amino-5-[8-[2-[3-[3-(hydroxymethyl)-3-methyl-azetidin-1-yl]prop-1-ynyl]-4-pyridyl]-3,8-diazabicyclo[3.2.1]octan-3-yl]pyridazin-3-yl]phenol] | > 0.1 µM | 30 to 70% | 0.01 to 0.1 µM | E (E indicates −30%-−70%) | 
Nc1nnc(-c2ccccc2O)cc1N1CC2CCC(C1)N2c1ccnc(C#CCN2CC(F)(CO)C2)c1 [Compound 171, 2-[6-amino-5-[8-[2-[3-[3-fluoro-3-(hydroxymethyl)azetidin-1-yl]prop-1-ynyl]-4-pyridyl]-3,8-diazabicyclo[3.2.1]octan-3-yl]pyridazin-3-yl]phenol] | > 0.1 µM |  | > 0.1 µM | E (E indicates −30%-−70%) | 
CC1CN(CC#Cc2cc(N3C4CCC3CN(c3cc(-c5ccccc5O)nnc3N)C4)ccn2)C1 [Compound 172, 2-[6-amino-5-[8-[2-[3-(3-methylazetidin-1-yl)prop-1-ynyl]-4-pyridyl]-3,8-diazabicyclo[3.2.1]octan-3-yl]pyridazin-3-yl]phenol] | 0.01 to 0.1 µM | 71 to 120% | < 0.01 µM | E (E indicates −30%-−70%) | 
CC1(F)CN(CC#Cc2cc(N3C4CCC3CN(c3cc(-c5ccccc5O)nnc3N)C4)ccn2)C1 [Compound 173, 2-[6-amino-5-[8-[2-[3-(3-fluoro-3-methyl-azetidin-1-yl)prop-1-ynyl]-4-pyridyl]-3,8-diazabicyclo[3.2.1]octan-3-yl]pyridazin-3-yl]phenol] | 0.01 to 0.1 µM | 30 to 70% | 0.01 to 0.1 µM | F (F indicates −71%-−120%) | 
